Patent US20260174791A1, “MACROPHAGE MIGRATION INHIBITORY FACTOR (MIF) TARGETING FOR THE TREATMENT OF NON-SMALL CELL LUNG CANCER” (Board of Regents, The University of Texas System, priority 2022, published 2026)

Experiments:
[1] = test system: lung cancer patients, EGFR or KRAS mutation; conditions: patients who harbor an EGFR mutation; cited from earlier work
[2] = test system: NSCLC patients with STK11/LKB1 and/or KEAP1 mutations; assay: Clinical data, pembrolizumab plus first-line chemotherapy in NSCLC patients; assay type: in vivo, human
From the text: FIG. 1A is a graph illustrating response rates to pemetrexed/platin/pembrolizumab (PCP) chemo-immunotherapy in STK11 and KEAP1-defined wild type (wt) and mutant subgroups. FIG. 1B is a graph illustrating response rates to pemetrexed/platin/pembrolizumab (PCP) chemo-immunotherapy in STK11 and KEAP1-defined wild type (wt) and mutant subgroups. […] FIG. 1D a Kaplan-Mayer graph illustrating overall survival of STK11/LKB1 and KEAP1 mutant or wt defined patients.

Compound: C#Cc1cccc(Nc2ncnc3cc(OCCOC)c(OCCOC)cc23)c1 [erlotinib]
- response rate [1]: 60%

Compound: pembrolizumab
- refractory disease on pembrolizumab plus standard care first-line chemotherapies ([2]; NSCLC patients (n=139), STK11/LKB1 and/or KEAP1 mutant vs wild type): higher percentage of patients with refractory diseases
- clinical benefit (survival) of adding pembrolizumab to chemotherapy ([2]; patients with STK11 and/or KEAP1 genomic alterations, vs chemotherapy alone): did not result in clinical benefit
